# Data from article PMC5666006, “Combating virulence of Gram-negative bacilli by OmpA inhibition” (Scientific Reports, 2017).
# Where a SMILES comes first, the peptide text is derived from it. [ ]: non-standard residue; d: D form.
# Tests used:
# [1] = Peptide toxicity, MTT assay; assay type: cell-based, human; details: human, A549 cells
# Experimental: Human type II pneumocyte cell line A549 derived from a human lung carcinoma were obtained from American Type Culture Collection (LGC, UK) and were grown in DMEM medium (Invitrogen, Spain) supplemented with 10% heat-inactivated fetal bovine serum, vancomycin (50 μg/mL), gentamicin (20 μg/mL), amphotericin B (0.25 μg/mL) (Invitrogen, Spain) and 1% HEPES (Invitrogen, Spain) in a humidified incubator, 5% CO2 at 37 °C. A549 cells were routinely passaged every 3–4 days. The cells were seeded 24 h in 96-well plates for cellular viability assay, and in 24 well plates for adhesion and immnunofluorescence assays.
# Peptide toxicity. […] Prior the evaluation of the peptides cytotoxicity, A549 cells were washed three times with prewarmed PBS. Then, peptides cytotoxicity was initially assessed quantitatively by monitoring the mitochondrial reduction activity using the MTT assay as described previously. The percentage of […] was calculated from the optical density (OD) as follow: [(OD of treated cells / mean OD of non-treated cell) × 100].
# Table S2. Percentages of A549 cellular viability assessed through mitochondrial reduction
# activity (MTT assay) in presence of anti-OmpA hexapeptides and control peptides (SXV4 and
# COL). COL: colistin. ND: not determined.
# Peptides 0.25 mg/mL 0.5 mg/mL 1 mg/mL 5 mg/mL
# [2] = test system: E. coli ATCC 25922; test: Adhesion of bacteria to A549 cells; assay type: cell-based; details: 0.25 or 0.5 mg/mL, 2 h
# Experimental: (§1) Subsequently, infected A549 cells were washed five times with pre-warmed PBS and lysed with 0.5% Triton X-100. Diluted lysates were plated onto blood agar (Blood-Agar Columbia, Becton Dickinson Microbiology Systems, USA) and incubated at 37 °C for 24 h for enumeration of developed colonies and then the determination of the number of bacteria that attached to A549 cells.
# [3] = test system: P. aeruginosa PaO1; test: Adhesion of bacteria to A549 cells; assay type: cell-based; details: 0.25 or 0.5 mg/mL, 2 h
# Experimental: as §1
# [4] = test system: A. baumannii ATCC 17978; test: Fibronectin-binding assay; assay type: cell-based; details: A. baumannii ATCC 17978, 0.25 or 0.5 mg/mL, 2 h
# Experimental: (§2) Fibronectin-binding assay was performed as described previously. Briefly, A. baumannii ATCC 17978, P. aeruginosa PaO1, and E. coli ATCC 25922 grown overnight at 37 °C in LB were resuspended in PBS and collected by centrifugation at 5,000 × g for 10 min. […] Then, 50 µL of bacterial suspension were mixed with 50 µL of PBS, added to fibronectin coated wells and incubated 2 h at room temperature for bacterial adsorption. Non-adhered bacteria were discarded and wells were washed six times with sterile PBS to remove unbound bacteria. Adherent bacteria were then collected with 125 µL of sterile PBS containing 0.5% Triton X-100. Diluted lysates were plated onto sheep blood agar and incubated at 37 °C for 24 h for enumeration of developed colonies and then the determination of the number of bacteria that attached to fibronectin.
# [5] = test system: E. coli ATCC 25922; test: Fibronectin-binding assay; assay type: cell-based; details: E. coli ATCC 25922, 0.25 or 0.5 mg/mL, 2 h
# Experimental: as §2
# [6] = test system: A. baumannii ATCC 17978; test: Bacterial cytotoxicity on A549 cells, MTT assay; assay type: cell-based; details: A. baumannii ATCC 17978 pretreated with 0.25 or 0.5 mg/mL, 24 h
# Experimental: (§3) Bacterial cytotoxicity. […] Prior the evaluation of bacterial cytotoxicity, we firstly removed viable bacteria from A549 cells cultures and washed A549 cells five times with pre-warmed PBS. Then, cellular viability was assessed as indicated above.
# [7] = test system: E. coli ATCC 25922; test: Bacterial cytotoxicity on A549 cells, MTT assay; assay type: cell-based; details: E. coli ATCC 25922 pretreated with 0.25 or 0.5 mg/mL, 24 h
# Experimental: as §3
# [8] = test system: P. aeruginosa PaO1; test: Bacterial cytotoxicity on A549 cells, MTT assay; assay type: cell-based; details: P. aeruginosa PaO1 pretreated with 0.25 or 0.5 mg/mL, 24 h
# Experimental: as §3
# [9] = test system: A. baumannii ATCC 17978; test: Time kill curves; assay type: cell-based; details: 0.25–1 mg/mL
# From the text: (§4) Figure S4. Time kill curves of A. baumannii ATCC 17978, P. aeruginosa PaO1, and E. coli
# (§5) (also on this page, place not known: Bacterial concentration ( Log CFU/mL) Bacterial concentration ( Log CFU/mL) Bacterial concentration ( Log CFU/mL))
# [10] = test system: E. coli ATCC 25922; test: Time kill curves; assay type: cell-based; details: 0.25–1 mg/mL
# From the text: as §4, §5
# [11] = test system: P. aeruginosa PaO1; test: Time kill curves; assay type: cell-based; details: 0.25–1 mg/mL
# From the text: as §4, §5
# [12] = test system: A. baumannii ATCC 17978; test: Murine peritoneal sepsis model; assay type: in vivo, mouse
# Experimental: (§6) Murine peritoneal sepsis models with A. baumannii ATCC 17978, P. aeruginosa PaO1 or E. coli ATCC 25922 strains were established by i.p. inoculation of the bacteria. Briefly, mice were inoculated with 0.5 mL of the bacterial suspensions, which were incubated for 20–24 h in LB at 37 °C and mixed in a 1:1 ration with a saline solution containing 10% (w/v) porcine mucin (Sigma, Spain).
# (§7) The murine peritoneal sepsis models by A. baumannii ATCC 17978, P. aeruginosa PaO1 or E. coli ATCC 25922 strains were established by i.p. inoculation of the bacteria. Briefly, animals were infected i.p. with 0.5 mL of the MLD100 of A. baumannii ATCC 17978, P. aeruginosa PaO1, or E. coli ATCC 25922 strains mixed 1:1 with 10% porcine mucin. […] Fifthy-six mice were randomly ascribed to the following groups: 1). controls (without treatment), and 2). […] Mortality was recorded over 72 h. After death or sacrifice of the mice at the end of the experimental period, aseptic thoracotomies were performed, and blood samples were obtained by cardiac puncture for qualitative blood cultures. The spleen and lungs were aseptically removed and homogenized (Stomacher 80; Tekmar Co., USA) in 2 mL of sterile NaCl 0.9% solution. Ten-fold dilutions of the homogenized spleen and lungs were plated onto Sheep blood agar for quantitative cultures (log CFU/g of spleen or lungs).
# [13] = test system: E. coli ATCC 25922; test: Murine peritoneal sepsis model; assay type: in vivo, mouse
# Experimental: as §6, §7
# [14] = test system: P. aeruginosa PaO1; test: Murine peritoneal sepsis model; assay type: in vivo, mouse
# Experimental: as §6, §7
# [15] = A. baumannii ATCC 17978, 10 mg/kg/d i.p., 72 h
# [16] = A. baumannii ATCC 17978 MLD i.p., 10 mg/kg AOA-2 i.p. 2 h after challenge
# [17] = E. coli ATCC 25922, 10 mg/kg/d i.p., 72 h
# [18] = E. coli ATCC 25922 MLD i.p., 10 mg/kg AOA-2 i.p. 2 h after challenge
# [19] = P. aeruginosa PaO1, 10 mg/kg/d i.p., 72 h
# [20] = P. aeruginosa PaO1 MLD i.p., 10 mg/kg AOA-2 i.p. 2 h after challenge
compound,measurement,setting,value
N=C(N)NCCC[C@@H]1NC(=O)[C@H]2CCCN2C(=O)[C@H](Cc2c[nH]c3ccccc23)NC(=O)[C@H](CCCNC(=N)N)NC(=O)[C@H]2CCCN2C(=O)[C@H](Cc2c[nH]c3ccccc23)NC1=O [AOA-2] (cyclo(RW[dP]RW[dP])),"viability at 48 h, 250 µg/mL",[1],98.09 ± 0.27%
same,"viability at 48 h, 500 µg/mL",[1],98.33 ± 0.4%
same,"viability at 48 h, 1000 µg/mL",[1],98.48 ± 0.55%
same,adherence of E. coli to A549 cells (in words),[2],significant reduction in adherence
same,adherence of P. aeruginosa to A549 cells (in words),[3],significant reduction in adherence
same,bacterial adherence to fibronectin (in words),[4],significant decrease in the bacterial adherence to fibronectin
same,bacterial adherence to fibronectin (in words),[5],significant decrease in the bacterial adherence to fibronectin
same,A549 cell death induced by bacteria (in words),[6],prevented cell death
same,A549 cell death induced by bacteria (in words),[7],failure
same,A549 cell death induced by bacteria (in words),[8],prevented cell death
same,bacteriostatic activity (in words),[9],poor bacteriostatic activity
same,bacteriostatic activity (in words),[10],intermediate behaviour
same,bacteriostatic activity (in words),[11],relevant bacteriostatic activity
same,mouse mortality (in words),[12]; [15],decreased
same,positive blood cultures (in words),[12]; [15],decreased
same,reduced the bacterial load in the lungs,[12]; [16],4.34 log CFU/g
same,reduced the bacterial load in the spleen,[12]; [16],4.54 log CFU/g
same,mouse mortality (in words),[13]; [17],decreased
same,positive blood cultures (in words),[13]; [17],decreased
same,reduced the bacterial load in the lungs,[13]; [18],3.47 log CFU/g
same,reduced the bacterial load in the spleen,[13]; [18],3.36 log CFU/g
same,mouse mortality (in words),[14]; [19],decreased
same,positive blood cultures (in words),[14]; [19],decreased
same,reduced the bacterial load in the lungs,[14]; [20],4.29 log CFU/g
same,reduced the bacterial load in the spleen,[14]; [20],4.04 log CFU/g
